PubChem BioAssay (NCI)
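Briefly, cells in 96-well plates were exposed to five compound concentrations for 48 h, and endpoints were estimated by linear interpolation. TGI marks complete inhibition of growth.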

Columns and labels:
Assay in all cases: growth of human tumour cells (NCI), 48 h
786-0 renal = system: 786-0 renal
A498 renal = system: A498 renal
A549 NSCLC = system: A549 NSCLC
ACHN renal = system: ACHN renal
BT-549 breast = system: BT-549 breast
CAKI-1 renal = system: CAKI-1 renal
CCRF-CEM leukemia = system: CCRF-CEM leukemia
COLO 205 colon = system: COLO 205 colon
DU-145 prostate = system: DU-145 prostate
EKVX NSCLC = system: EKVX NSCLC
HCC-2998 colon = system: HCC-2998 colon
HCT-116 colon = system: HCT-116 colon
HCT-15 colon = system: HCT-15 colon
HL-60(TB) leukemia = system: HL-60(TB) leukemia
HOP-62 NSCLC = system: HOP-62 NSCLC
HS 578T breast = system: HS 578T breast
HT29 colon = system: HT29 colon
IGROV1 ovarian = system: IGROV1 ovarian
K-562 leukemia = system: K-562 leukemia
KM12 colon = system: KM12 colon
LOX IMVI melanoma = system: LOX IMVI melanoma
M14 melanoma = system: M14 melanoma
MALME-3M melanoma = system: MALME-3M melanoma
MCF7 breast = system: MCF7 breast
MDA-MB-435 = system: MDA-MB-435
MDA-N = system: MDA-N
MOLT-4 leukemia = system: MOLT-4 leukemia
NCI-H23 lung = system: NCI-H23 lung
NCI-H460 lung = system: NCI-H460 lung
NCI-H522 lung = system: NCI-H522 lung
NCI/ADR-RES ovarian = system: NCI/ADR-RES ovarian
OVCAR-3 ovarian = system: OVCAR-3 ovarian
OVCAR-4 ovarian = system: OVCAR-4 ovarian
OVCAR-5 ovarian = system: OVCAR-5 ovarian
OVCAR-8 ovarian = system: OVCAR-8 ovarian
PC-3 prostate = system: PC-3 prostate
RPMI-8226 leukemia = system: RPMI-8226 leukemia
SF-268 CNS = system: SF-268 CNS
SF-295 CNS = system: SF-295 CNS
SF-539 CNS = system: SF-539 CNS
SK-MEL-2 melanoma = system: SK-MEL-2 melanoma
SK-MEL-28 melanoma = system: SK-MEL-28 melanoma
SK-MEL-5 melanoma = system: SK-MEL-5 melanoma
SK-OV-3 ovarian = system: SK-OV-3 ovarian
SNB-19 CNS = system: SNB-19 CNS
SR leukemia = system: SR leukemia
SW-620 colon = system: SW-620 colon
T-47D breast = system: T-47D breast
U251 CNS = system: U251 CNS
UACC-257 melanoma = system: UACC-257 melanoma
UACC-62 melanoma = system: UACC-62 melanoma
UO-31 renal = system: UO-31 renal
HOP-92 NSCLC = system: HOP-92 NSCLC
MDA-MB-231 breast = system: MDA-MB-231 breast
NCI-H226 lung = system: NCI-H226 lung
RXF 393 renal = system: RXF 393 renal
SN12C renal = system: SN12C renal
SNB-75 CNS = system: SNB-75 CNS
TK-10 renal = system: TK-10 renal

Measured: TGI

O=C(Nc1ccc(Cl)cc1)Oc1ccc(C(=S)Nc2ccc(Br)cc2)cc1
37.2 µM: NCI-H522 lung
36 µM: M14 melanoma
20.9 µM: CCRF-CEM leukemia
12.2 µM: UACC-62 melanoma
70.2 µM: MCF7 breast
75.8 µM: OVCAR-4 ovarian
67.2 µM: MDA-N
89.2 µM: MALME-3M melanoma
9.32 µM: LOX IMVI melanoma
54.4 µM: HCT-116 colon
33.6 µM: HCC-2998 colon
22.7 µM: OVCAR-8 ovarian
25 µM: IGROV1 ovarian
25.5 µM: KM12 colon
54.1 µM: BT-549 breast
54.9 µM: A498 renal
48.4 µM: SK-MEL-28 melanoma
57.2 µM: K-562 leukemia
39.7 µM: SF-539 CNS
48.6 µM: 786-0 renal
88.9 µM: T-47D breast
18.1 µM: HL-60(TB) leukemia | HT29 colon
23 µM: SK-MEL-5 melanoma
61.4 µM: NCI/ADR-RES ovarian
36.7 µM: SR leukemia
54.5 µM: OVCAR-3 ovarian
75.5 µM: U251 CNS
35.8 µM: CAKI-1 renal
35.7 µM: HCT-15 colon
38.4 µM: OVCAR-5 ovarian
38.6 µM: MDA-MB-435
46.2 µM: MOLT-4 leukemia
27.7 µM: SK-MEL-2 melanoma
19.6 µM: EKVX NSCLC
63.9 µM: NCI-H23 lung
23.6 µM: COLO 205 colon
not listed: HOP-92 NSCLC | MDA-MB-231 breast | NCI-H226 lung | RXF 393 renal | SN12C renal | SNB-75 CNS | TK-10 renal
> 100 µM: all other assays above

C[C@]12CC[C@@H]3c4ccc(OS(N)(=O)=O)cc4CC[C@H]3[C@@H]1CCC2=O
38.8 µM: SK-MEL-5 melanoma
not listed: MOLT-4 leukemia | NCI-H522 lung | PC-3 prostate | SR leukemia
> 100 µM: all other assays above

COc1cc2c(c(OC)c1)C(C)=NC(C)C2 (stereo not drawn)
not listed: NCI/ADR-RES ovarian | OVCAR-3 ovarian | OVCAR-4 ovarian | OVCAR-5 ovarian | SK-MEL-2 melanoma | U251 CNS | HOP-92 NSCLC | RXF 393 renal | SNB-75 CNS
> 100 µM: all other assays above

CC(=O)CC1(O)C(=O)c2c(Br)sc(Br)c2C1=O
33.2 µM: MALME-3M melanoma
45.4 µM: PC-3 prostate
49.9 µM: SR leukemia
55.6 µM: SW-620 colon
45.9 µM: MDA-N
36.4 µM: NCI-H522 lung | OVCAR-4 ovarian
46 µM: SK-MEL-28 melanoma | UACC-62 melanoma
53.8 µM: HT29 colon
55.8 µM: EKVX NSCLC
43.6 µM: MDA-MB-435
34.7 µM: HOP-92 NSCLC
33.1 µM: M14 melanoma
50.7 µM: UO-31 renal
95 µM: HS 578T breast
43 µM: CCRF-CEM leukemia
39.2 µM: NCI-H23 lung
50.5 µM: HL-60(TB) leukemia
36.9 µM: COLO 205 colon
79.4 µM: HOP-62 NSCLC
53.5 µM: U251 CNS
31.7 µM: OVCAR-3 ovarian
51.7 µM: RXF 393 renal
33.9 µM: OVCAR-5 ovarian
35 µM: LOX IMVI melanoma
41.4 µM: UACC-257 melanoma
32.1 µM: CAKI-1 renal
56.8 µM: TK-10 renal
48 µM: OVCAR-8 ovarian
35.9 µM: IGROV1 ovarian
91 µM: K-562 leukemia
49.3 µM: SF-539 CNS
35.8 µM: BT-549 breast | HCT-116 colon
57.6 µM: 786-0 renal
83.9 µM: T-47D breast
34.2 µM: SK-MEL-5 melanoma
82.4 µM: SF-268 CNS
45.7 µM: HCT-15 colon
46.7 µM: SK-MEL-2 melanoma
32.7 µM: HCC-2998 colon
35.4 µM: SN12C renal
not listed: MDA-MB-231 breast
> 100 µM: all other assays above

COC(=O)c1ccccc1C1CN=NC12Cc1c(C)cccc1C2=O (stereo not drawn)
not listed: PC-3 prostate
> 100 µM: all other assays above
